The values below come from ChEMBL document CHEMBL3886473, “Compounds that are ERK inhibitors” (2016).

In general, IC50 refers to the midpoint of a concentration-inhibition curve. A higher IC50 goes with weaker potency.

This experiment deals with Mitogen-activated protein kinase 1 (Homo sapiens, UniProt P28482). As to the kind of experiment: IMAP-FP Assay: Activated ERK2 activity was determined in an IMAP-FP assay (Molecular Devices).
Chain of Mitogen-activated protein kinase 1 (P28482 whole entry): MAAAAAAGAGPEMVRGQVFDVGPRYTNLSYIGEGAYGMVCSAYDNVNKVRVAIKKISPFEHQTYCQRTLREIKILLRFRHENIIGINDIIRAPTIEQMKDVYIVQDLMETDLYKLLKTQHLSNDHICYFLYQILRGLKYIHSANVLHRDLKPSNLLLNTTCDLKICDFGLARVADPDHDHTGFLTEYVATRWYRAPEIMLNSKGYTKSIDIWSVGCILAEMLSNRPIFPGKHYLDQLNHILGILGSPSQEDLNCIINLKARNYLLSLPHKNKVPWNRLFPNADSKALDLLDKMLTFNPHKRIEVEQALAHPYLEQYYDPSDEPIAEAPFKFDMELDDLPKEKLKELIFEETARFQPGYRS

`COC(=O)Nc1n[nH]c2cc(NC(=O)N[C@H](C)c3ccc(Cl)c(OC)c3)ncc12` returned an IC50 of 5.2 nM.
